What was measured:
Assay in all cases: Agar well diffusion assay, zone of inhibition
Assay type in all cases: cell-based
Conditions in all cases: samples at 100 μl, beyond the well diameter of 6 mm, mean±S.D.
[1] = tested on: Pseudomonas aeruginosa (RCMB 010045)
[2] = tested on: Escherichia coli (RCMB 010054)
Method: (§1) Antimicrobial activity of the reduced graphene oxide (rGO) nanoparticles was determined using the agar well diffusion assay method as described by Holder and Boyce, 1994. Three bacterial strains (two gram positive and one gram negative) and one yeast strain, namely, Bacillis subtilis (RCMB 010067), Staphylococcus pneumoniae (RCMB 010011), Escherichia coli (RCMB 010052), and Aspergillus fumigatus (RCMB 02568) were used for the antimicrobial assay.
(§2) The tested organisms were sub-cultured on nutrient agar medium (Oxoid laboratories, UK) for bacteria and Sabouraud dextrose agar (Oxoid laboratories, UK) for fungi. Ampicillin and Gentamicin were used as positive control for gram positive and gram negative bacteria, respectively, while Amphotericin B was used for fungi. The plates were done in triplicates. Bacterial cultures were incubated at 37° C. for 24 h, while the fungal cultures were incubated at 25-30° C. for 3-7 days. Antimicrobial activity was determined by measuring the zone of inhibition [A. Agwa, (2000)]. Samples were tested at a concentration of 100 μl; Data are expressed in the form of (M±S.D.): mean±standard deviation; Diameter of the inhibition zone (mm) beyond the well diameter of 6 mm; NT: not tested; NA: no activity.

[3] = tested on: Streptococcus pneumoniae (RCMB 010011)
Method: as §1, §2

[4] = tested on: Bacillis subtilis (RCMB 010068)
Method: as §1, §2

[5] = tested on: Candida albicans (RCMB 05038)
[6] = tested on: Aspergillus fumigatus (RCMB 02567)
Method: as §1, §2

## Gentamicin
[1]
  Diameter of the inhibition zone: 16.0 ± 1.0 mm
[2]
  Diameter of the inhibition zone: 20.3 ± 0.58 mm

## CC1(C)S[C@@H]2[C@H](NC(=O)[C@H](N)c3ccccc3)C(=O)N2[C@H]1C(=O)O [Ampicillin]
[3]
  Diameter of the inhibition zone: 21.0 ± 1.0 mm
[4]
  Diameter of the inhibition zone: 31.3 ± 1.5 mm

## C[C@@H]1[C@H](O)[C@@H](C)/C=C/C=C/C=C/C=C/C=C/C=C/C=C/[C@H](O[C@@H]2O[C@H](C)[C@@H](O)[C@H](N)[C@@H]2O)C[C@@H]2O[C@](O)(C[C@@H](O)C[C@@H](O)[C@H](O)CC[C@@H](O)C[C@@H](O)CC(=O)O[C@H]1C)C[C@H](O)[C@H]2C(=O)O [Amphotericin B]
[5]
  Diameter of the inhibition zone: 22.7 ± 1.5 mm
[6]
  Diameter of the inhibition zone: 21.7 ± 1.5 mm

— patent publication US9850133B2, “Green synthesis of reduced graphene oxide using Nigella sativa seed extract” (KING SAUD UNIVERSITY, priority 2016, dated 2017)
